Laboratory results reported in article PMC12154458, “High-Throughput Screens of Repurposing Hub and DOS Chemical Libraries Reveal Compounds with Novel and Potent Inhibitory Activity Against the Essential Non-Neuronal Acetylcholinesterase of Schistosoma mansoni (SmTAChE)” (International Journal of Molecular Sciences, 2025).
Like-named read-outs stand apart in the source and are kept apart here.

Experiments:
rSmTAChE [1] = target: T1, rSmTAChE (Schistosoma mansoni, UniProt A0A3Q0KMM5); experiment: biochemical
rSmTAChE [2] = target: T1, rSmTAChE; format: biochemical; settings: for IC50: read-out: qAC50 (IC50), rSmTAChE
[3] = target: recombinant human acetylcholinesterase, rHsAChE (Homo sapiens, UniProt P22303); experiment: biochemical
[4] = read-out: qAC50 (IC50), rHsAChE
[5] = read-out: rSmTAChE HTS Inhibition (Ave, %)
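Wherever Inhibition (%) (Average) is given: mostly 20 µM final but a few compounds at 5 or 10 µM.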
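Wherever Inhibition (%) Replicate A is given: mostly 20 µM final but a few compounds at 5 or 10 µM.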
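Wherever Inhibition (%) Replicate B is given: mostly 20 µM final but a few compounds at 5 or 10 µM.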

T1 sequence (A0A3Q0KMM5 27-661 limits assumed): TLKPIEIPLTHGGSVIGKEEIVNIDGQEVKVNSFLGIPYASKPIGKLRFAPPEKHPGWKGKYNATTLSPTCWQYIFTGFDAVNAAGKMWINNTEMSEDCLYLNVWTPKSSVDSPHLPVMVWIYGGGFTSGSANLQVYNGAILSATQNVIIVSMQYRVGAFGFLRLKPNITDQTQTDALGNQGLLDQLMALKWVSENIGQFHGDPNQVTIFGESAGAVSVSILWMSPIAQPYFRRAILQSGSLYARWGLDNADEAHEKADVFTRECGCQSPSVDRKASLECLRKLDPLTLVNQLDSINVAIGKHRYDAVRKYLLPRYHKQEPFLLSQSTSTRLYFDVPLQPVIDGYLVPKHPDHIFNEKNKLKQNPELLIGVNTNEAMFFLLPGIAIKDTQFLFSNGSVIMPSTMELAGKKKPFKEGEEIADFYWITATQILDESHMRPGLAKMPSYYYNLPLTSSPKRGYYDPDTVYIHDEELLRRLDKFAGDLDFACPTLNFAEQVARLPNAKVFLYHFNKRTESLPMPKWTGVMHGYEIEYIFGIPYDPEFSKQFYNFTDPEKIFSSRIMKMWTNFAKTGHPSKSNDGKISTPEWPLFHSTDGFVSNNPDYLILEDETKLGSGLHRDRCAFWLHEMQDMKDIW
Sequence of recombinant human acetylcholinesterase, rHsAChE (P22303 32-614): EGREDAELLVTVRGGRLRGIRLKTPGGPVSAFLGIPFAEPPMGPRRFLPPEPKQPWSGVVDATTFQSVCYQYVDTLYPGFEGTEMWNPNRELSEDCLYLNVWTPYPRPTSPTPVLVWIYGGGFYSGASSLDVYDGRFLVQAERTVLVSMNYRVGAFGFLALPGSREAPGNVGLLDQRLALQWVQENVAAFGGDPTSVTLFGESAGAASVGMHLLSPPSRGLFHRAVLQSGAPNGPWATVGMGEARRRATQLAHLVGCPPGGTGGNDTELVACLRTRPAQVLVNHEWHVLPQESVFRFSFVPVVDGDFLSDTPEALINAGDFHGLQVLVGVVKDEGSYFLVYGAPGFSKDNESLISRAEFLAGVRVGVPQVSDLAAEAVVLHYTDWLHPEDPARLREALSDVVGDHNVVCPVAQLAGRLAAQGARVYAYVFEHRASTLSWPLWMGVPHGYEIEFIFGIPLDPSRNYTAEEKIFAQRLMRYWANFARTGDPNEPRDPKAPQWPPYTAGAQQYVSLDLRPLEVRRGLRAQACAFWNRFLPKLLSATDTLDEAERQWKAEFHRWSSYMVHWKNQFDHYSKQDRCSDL

Row | SMILES | Inhibition (%) (Average) (rSmTAChE [1]) | Inhibition (%) Replicate A (rSmTAChE [1]) | Inhibition (%) Replicate B (rSmTAChE [1]) | rSmTAChE Data Mode (rSmTAChE [2]) | rHsAChE Data Mode [3] | Data Mode (curve class), rSmTAChE (rSmTAChE [2]) | Data Mode (curve class), rHsAChE [3] | other results
1 | COc1ccc(NC(=O)Nc2ccc3c(c2)[C@@H]2C[C@H](CC(=O)NCc4ccccc4F)O[C@@H](CO)[C@@H]2O3)cc1 [BRD-K05329107-001-01-3] | 62.78% | 63.88% | 61.69% | inactive | decreasing (weakly active) |  |  | 
2 | COc1ccc(C#Cc2ccc3c(c2)O[C@H](CN(C)S(=O)(=O)c2ccccc2F)[C@H](C)CN([C@@H](C)CO)S3(=O)=O)cc1 [BRD-K71357636-001-01-3] | 64.93% | 63.67% | 66.19% | inactive | inactive |  |  | 
3 | COC(=O)C1=C(C)NC(C)=C(C(=O)OC(C)(C)CN(C)CCC(c2ccccc2)c2ccccc2)C1c1cccc([N+](=O)[O-])c1 (centres unmarked) [BRD-A18992208-003-02-7] | 78.14% | 77.49% | 78.79% |  |  | inactive | inactive | 
4 | Oc1cc(Cl)ccc1Oc1ccc(Cl)cc1Cl [Triclosan, reference compound] |  |  |  |  |  | decreasing | decreasing (weakly active) | inhibition at 20 µM (rSmTAChE [1]; read-out: HTS/rSmTAChE Inhibition (Ave, %)): 68%; SI (Hs/Sm) (rSmTAChE [2]): 5.78
5 | CC(C)Oc1ccc(-c2nn([C@@H](C)c3oc4ccc(F)cc4c(=O)c3-c3cccc(F)c3)c3ncnc(N)c23)cc1F [BRD-K52579889-001-01-9] | 65.60% | 66.50% | 64.70% |  |  | decreasing (weakly active) | inactive | IC50 (rSmTAChE [2]): > 38 µM
6 | COc1ccc(NC(=O)Nc2ccc3c(c2)[C@@H]2C[C@H](CC(=O)NCc4ccc5c(c4)OCO5)O[C@H](CO)[C@@H]2O3)cc1 [BRD-K77518191-001-01-1] | 88.00% | 87.37% | 88.63% | decreasing (weakly active) | inactive |  |  | 
7 | O=C(C[C@H]1C=C[C@H](NC(=O)c2ccncc2)[C@@H](CO)O1)Nc1ccc(-c2ccccc2)cc1 [BRD-K04695993-001-01-5] | 82.34% | 77.66% | 87.01% | inactive | inactive |  |  | 
8 | CCCCCCCCCCCCc1ccc(S(=O)(=O)Nc2nncs2)cc1 [BRD-K59745944-001-04-6] | 78.08% | 80.43% | 75.72% |  |  | decreasing | decreasing | IC50 (rSmTAChE [2]): 1.86 µM; IC50 [3, 4]: 1.16 µM
9 | CN(C)C(=O)Oc1cccc([N+](C)(C)C)c1 [Neostigmine bromide, reference compound] |  |  |  |  |  | decreasing | decreasing | inhibition at 20 µM (rSmTAChE [1]; [5]): 88.1%
10 | Clc1ccc(C(c2ccccc2Cl)C(Cl)Cl)cc1 (centres unmarked) [BRD-A31204924-001-14-2] | 71.30% | 71.94% | 70.66% |  |  | inactive | decreasing (weakly active) | IC50 [3, 4]: > 38 µM
11 | N#C[C@H]1[C@@H](c2ccc(C#CC3CC3)cc2)[C@@H](CO)N1C(=O)Cc1ccccn1 [BRD-K68325500-004-02-0] | 64.83% | 63.64% | 66.02% | inactive | inactive |  |  | 
12 | Cc1c(C(=O)NN2CCCCC2)nn(-c2ccc(Cl)cc2Cl)c1-c1ccc(Cl)cc1 [BRD-K13296708-001-05-8] | 75.13% | 74.54% | 75.71% |  |  | decreasing (weakly active) | inactive | IC50 (rSmTAChE [2]): > 38 µM
13 | C[C@]12CCC3c4ccc(OC(=O)c5ccccc5)cc4CCC3C1CC[C@@H]2O (some centres unmarked) [BRD-A74765037-001-01-1] | 66.55% | 67.53% | 65.56% |  |  | inactive | inactive | 
14 | CCCC[C@@H](CC)COC(=O)/C=C/c1ccc(OC)cc1 [BRD-K19972289-001-01-4] | 64.81% | 66.96% | 62.66% |  |  | inactive | decreasing | IC50 [3, 4]: 25.7 µM
15 | C#C[C@]1(OC(C)=O)CC[C@H]2[C@@H]3CCC4=C[C@@H](OC(C)=O)CC[C@@H]4[C@H]3CC[C@@]21C [BRD-K46331928-001-05-8] | 94.91% | 95.51% | 94.31% |  |  | decreasing (weakly active) | inactive | IC50 (rSmTAChE [2]): > 38 µM
16 | COc1ccc(NC(=O)Nc2ccc3c(c2)[C@H]2C[C@@H](CC(=O)NCc4ccccn4)O[C@H](CO)[C@H]2O3)cc1 [BRD-K96625719-001-01-4] | 74.63% | 75.38% | 73.88% | decreasing (weakly active) | inactive |  |  | 
17 | CC(C)(C)[S+]([O-])N1Cc2cc(C(=O)NCCN3CCCC3)nc(-c3cccc(-c4ccc(C#N)cc4)c3)c2C1CCO (centres unmarked) [BRD-K49441594-001-01-4] |  |  |  | decreasing |  |  |  | inhibition at 20 µM (rSmTAChE [1]; [5]): 61.8%; SI (Hs/Sm) (rSmTAChE [2]): 2.35; IC50 ([3]; Table 2, DOS-A library, Inactive = inactive at the maximum tested concentration (40 µM), read-out: IC50 (µM) rHsAChE): 35.5 µM; IC50 ([3]; Table S4, DOS-A (IC50 values; qAC50), read-out: rHsAChE qAC50): 35.5 µM; rHsAChE Data Mode ([3]; dose response curve classification, Table S4, DOS-A): decreasing
18 | O=C(O)c1ccccc1Nc1ccc(CCc2ccc(Cl)c(Cl)c2)cc1 [BRD-K34657753-001-01-9] | 82.51% | 83.46% | 81.56% |  |  | decreasing | decreasing | IC50 (rSmTAChE [2]): 12.4 µM; IC50 [3, 4]: 8.55 µM
19 | CC(C)C#Cc1ccc([C@@H]2[C@@H](CO)N3C(=O)CN(S(=O)(=O)c4ccccc4)C[C@@H]23)cc1 [BRD-K69261014-001-01-3] | 63.59% | 66.79% | 60.39% | inactive | increasing (weakly active) |  |  | 
20 | CN(CCCCCCCCCCN(C)C(=O)Oc1cccc([N+](C)(C)C)c1)C(=O)Oc1cccc([N+](C)(C)C)c1 [Demecarium bromide, reference compound] |  |  |  |  |  | decreasing | decreasing | inhibition at 20 µM (rSmTAChE [1]; [5]): 65.3%; IC50 ([3]; IC50 (µM) rHsAChE): 0.02 µM; IC50 ([3]; qAC50 (IC50), rHsAChE): 0.0225 µM
21 | CC1(COc2ccc3c(c2)ncn3-c2ccc3cccc(N4CCC(N)CC4)c3n2)COC1 [Crenolanib, reference compound] |  |  |  |  |  | decreasing (weakly active) |  | inhibition at 20 µM (rSmTAChE [1]; [5]): 64.5%; SI (Sm/Hs) [3]: 1.97; IC50 ([3]; Table 3, read-out: IC50 (µM) rHsAChE): 9.91 µM; Data Mode (curve class), rHsAChE ([3]; dose response analysis of Drug Repurposing Hub hits against rHsAChE): decreasing
22 | CCCCc1oc2ccccc2c1C(=O)c1cc(I)c(OCCN(CC)CC)c(I)c1 [BRD-K17561142-003-35-8] | 69.46% | 66.24% | 72.67% |  |  | decreasing (weakly active) | decreasing (weakly active) | IC50 (rSmTAChE [2]): > 38 µM; IC50 [3, 4]: > 38 µM
23 | C[C@]12CC[C@@H]3c4ccc(O)cc4C[C@@H](CCCCCCCCC[S+]([O-])CCCC(F)(F)C(F)(F)F)[C@H]3[C@@H]1CC[C@@H]2O (some centres unmarked) [BRD-A85667082-001-11-9] | 64.36% | 64.01% | 64.71% |  |  | inactive | decreasing (weakly active) | IC50 [3, 4]: > 13.5 µM
